Measurements: patent publication US20240349724A1, “ANTIMICROBIAL COMPOSITIONS EFFECTIVE AGAINST BACTERIA AND FUNGUS” (TerMir Inc., priority 2017, published 2024)
≈ marks a conversion by molar mass, not a printed value. Where “and” joins values, the source holds several entries; their conditions need not be identical. Identical values can stand only once. Like-named read-outs stand apart in the source and are kept apart here.

How the values were obtained:
[1] = test system: Bacillus subtilis ATCC 15841; experiment: CLSI M07-A10 microdilution / checkerboard MIC; type: cell-based; conditions: for Reduced PhlB: fraction of PhlB dosage
Procedure: (§1) Tests are conducted according to the 2015 Clinical and Laboratory Standards Institute Method M07-A10: Methods for dilution antimicrobial susceptibility tests for bacteria that grow aerobically. Sterile 96-well microplates are prepared with Meuller Hinton Broth containing varying amounts of test compounds in each well (100 μL per well). Then according to the CLSI M07-A10 microdilution assay, a row with a 2-fold serial dilution series with 10 different concentrations of the test compound are prepared along with three replicate rows for each combination of test organism and test compound. According to the CLSI M07-A10 microdilution combination (checkerboard) assay, an 8×8 well matrix containing two 2-fold serial dilution series of two test compounds arranged perpendicular to one another so that each concentration of compound 1 is prepared once with each combination of compound 2. One column with a 2-fold serial dilution series with 8 different concentrations of test compound 1 is prepared along with one column with a 2-fold serial dilution series with 8 different concentrations of test compound 2. One microplate for each combination of test organism and pair of test compounds is prepared in addition to a cell suspension of each test microorganism equivalent to a 0.5 McFarland turbidity standard using fresh isolated colonies grown on Meuller Hinton Agar. Each cell suspension is diluted in a 1:20 ratio in Meuller Hinton Broth and the microplate is inoculated by adding add 10 μL to each well. Microplates then incubate according to CLSI M07-A10.
(§2) Microplates are read and data was interpreted according to the following procedure: The minimum inhibitory concentration (MIC) is the minimum concentration of the test compound needed to cease growth of the organism, it encompasses microbe death as well as microbe loss of the ability to divide and grow. Supplemental light was used during the 24-hour incubation period. Light intensity ranged from 1259 and 4203 lux.

[2] = test system: Rhizobium radiobacter ATCC 70069; experiment: CLSI M07-A10 microdilution / checkerboard MIC; type: cell-based; conditions: for MIC: Agrobacterium radiobacter, ATCC70069, 24 h, read-out: MIC at 24 hours in Light, Fluorescein, R. radiobacter; for Reduced PhlB: fraction of PhlB dosage
Procedure: as §1, §2

[3] = test system: Ralstonia insidiosa ATCC 49129; experiment: microbe, parasite or virus in culture; type: cell-based; conditions: for Reduced PhlB: fraction of PhlB dosage
Procedure: as §1, §2

[4] = test system: Stenotrophomonos maltophilia ATCC 13637; experiment: CLSI M07-A10 microdilution / checkerboard MIC; type: cell-based, Stenotrophomonas maltophilia; conditions: for Reduced PhlB: fraction of PhlB dosage
Procedure: as §1, §2

[5] = test system: Aspergillus niger ATCC 6275; experiment: Mold microplate MIC (visible growth); type: cell-based; conditions: for Reduced PhlB: fraction of PhlB dosage
Procedure: (§3) Mold: Culture Curvularia and Aspergillus on SDA at 35±1° C. for 7 days or until good sporulation is obtained. Culture Alternaria at 30±1° C. for 7 days or until good sporulation is obtained. Harvest sporulating colonies with 0.8-0.9% saline solution and transfer to a fresh tube. Allow heavy particles to settle for 5 minutes and transfer the upper homogeneous suspension to a sterile tube and mix via vortex for 15 seconds. Read and adjust the optical density to OD (530 nm): • Alternaria: 0.25-0.30 • Aspergillus: 0.09-0.13 • Curvularia: 0.25-0.30
(§4) Data Analysis/Reporting: Read microplates for visible growth (turbidity). Use the minimum inhibitory concentration (MIC).

[6] = test system: Altemaria alternata ATCC 66981; experiment: Mold microplate MIC (visible growth); type: cell-based, Alternaria alternata; conditions: for Reduced PhlB: fraction of PhlB dosage
Procedure: as §3
(§5) During the Candida adjusted inoculum preparation, saline cell suspensions with optical densities equal to that of a 0.5 McFarland Equivalence Turbidity Standard were diluted 1:1000 in RPMI 1640, rather than 1:2000 as instructed in CLSI M27-A3. Alternaria was cultured at 30±1° C. for 7 days or until good sporulation was obtained.
as §4

[7] = test system: Candida albicans ATCC 10231; experiment: Yeast microplate MIC (visible growth); type: cell-based; conditions: for Reduced PhlB: fraction of PhlB dosage
Procedure: Yeast: Culture Candida on Sabouraud Dextrose Agar (SDA) at 35±1° C. for 24-48 hours until colonies are approximately 2-3 mm in diameter. Suspend ˜5 colonies in 5 mL of sterile 0.8-0.9% saline solution. Vortex for 15 seconds. Adjust the cell density to that of a 0.5 McFarland Equivalence Turbidity Standard. Prepare adjusted inoculum: Dilute the cell suspension 1:2000 in RPMI 1640. Inoculate microplates by adding 100 μL to each applicable well.
as §5, §4

[8] = test system: Curvularia lunata ATCC 12017; experiment: Mold microplate MIC (visible growth); type: cell-based; conditions: for Reduced PhlB: fraction of PhlB dosage
Procedure: as §3, §4

Gram(+) bacteria = conditions: background statement; cited from earlier work
Gram(−) bacteria = conditions: PhlB on its own; background statement; cited from earlier work
[9] = B. subtilis, alone ('Trial' line)
[10] = R. radiobacter, alone ('Trial' line)
[11] = R. insidiosa, alone ('Trial' line)
[12] = S. maltophilia, alone ('Trial' line)
[13] = A. alternata, alone ('Trial' line)
[14] = C. albicans, alone ('Trial' line)

Compound: N.N.O=S(=O)(O)O [Ammonium sulfate, ammonium sulfate]
- MIC at 24 hours in Light, Ammonium sulfate [1, 9]: 93800 µM
- MIC at 24 hours in Light, Ammonium sulfate [2, 10]: 93800 µM
- MIC at 24 hours in Light, Ammonium sulfate [3, 11]: 750000 µM
- MIC at 24 hours in Light, Ammonium sulfate [4, 12]: 375000 µM
- MIC at 24 hours in Light, Ammonium sulfate ([5]; A. niger, alone ('Trial' line)): 93749 µM
- MIC at 24 hours in Light, Ammonium sulfate [6, 13]: 46874 µM
- MIC at 24 hours in Light, Ammonium sulfate [7, 14]: 750000 µM

Compound: O=C1OC2(c3ccc(O)cc3Oc3cc(O)ccc32)c2ccccc21 [Fluorescein, 3′,6′-dihydroxyspiro[2-benzofuran-3,9′-xanthene]-1-one]
- MIC ([1]; Bacillus subtilis, ATCC15841, 24 h, read-out: MIC at 24 hours in Light, Fluorescein, B. subtilis, alone ('Trial' line)): 62.5 µM
- MIC ([2]; alone ('Trial' line)): 0.98 µM
- MIC ([2]; combined with PHL B (c2 of same line)): 0.49 µM
- MIC ([3]; Ralstonia insidiosa, ATCC49129, 24 h, read-out: MIC at 24 hours in Light, Fluorescein, R. insidiosa, alone ('Trial' line)): 7.8 µM
- MIC ([4]; Stenotrophomonas maltophilia, ATCC13637, 24 h, read-out: MIC at 24 hours in Light, Fluorescein, S. maltophilia, alone ('Trial' line)): 7.8 µM
- MIC ([5]; Aspergillus niger, ATCC6275, 24 h, read-out: MIC at 24 hours in Light, Fluorescein, A. niger, alone ('Trial' line)): 1.86 µM (≈ 0.618 µg/mL)
- MIC ([8]; Curvularia lunata, ATCC12017, 24 h, read-out: MIC at 24 hours in Light, Fluorescein, C. lunata, alone ('Trial' line)): 15.7 µM (≈ 5.21 µg/mL)
- MIC ([6]; Alternaria alternata, ATCC66981, 24 h, read-out: MIC at 24 hours in Light, Fluorescein, A. alternata, alone ('Trial' line)): 15.7 µM (≈ 5.21 µg/mL)
- MIC ([7]; Candida albicans, ATCC10231, 24 h, read-out: MIC at 24 hours in Light, Fluorescein, C. albicans, alone ('Trial' line)): 2000 µM (≈ 665 µg/mL)

Compound: [Na+].[Na+].[O-]B1OB2OB([O-])OB(O1)O2 [NaTetraBorate, sodium tetraborate]
- MIC at 24 hours in Light, NaTetraBorate [1, 9]: 10000 µM
- MIC at 24 hours in Light, NaTetraBorate [2, 10]: 2500 µM
- MIC at 24 hours in Light, NaTetraBorate [3, 11]: 10000 µM
- MIC at 24 hours in Light, NaTetraBorate [4, 12]: 5000 µM
- MIC at 24 hours in Light, NaTetraBorate ([5]; A. niger, alone ('Trial' line)): 2673 µM
- MIC at 24 hours in Light, NaTetraBorate ([8]; C. lunata, alone ('Trial' line)): 4999.50 µM
- MIC at 24 hours in Light, NaTetraBorate [6, 13]: 625160 µM
- MIC at 24 hours in Light, NaTetraBorate [7, 14]: 9999 µM

Compound: O=C1OC2(c3cc(Br)c([O-])c(Br)c3Oc3c2cc(Br)c([O-])c3Br)c2c(Cl)c(Cl)c(Cl)c(Cl)c21.[Na+].[Na+] [PHL B, disodium salt of 2′,4′,5′,7′-tetrabromo-4,5,6,7-tetrachlorofluorescein]
- MIC at 24 hours in Light, PHL B [1, 9]: 0.98 µM and 0.49 µM
- Reduced PhlB ([1]; B. subtilis, with Fluorescein): ⅛ and ¼ and ½ and 1/16
- Reduced PhlB ([1]; B. subtilis, with NaTetraBorate): 3/98 and 3/49 and ⅛ and ¼ and ½
- MIC at 24 hours in Light, PHL B [2, 10]: 0.12 µM and 0.24 µM
- Reduced PhlB ([2]; R. radiobacter, with Fluorescein): ¼ and ½ and ⅛
- Reduced PhlB ([2]; R. radiobacter, with NaTetraBorate): ¼ and ½
- Reduced PhlB ([3]; R. insidiosa, with Fluorescein): ⅛ and ¼ and ½ and 1/16
- Reduced PhlB ([3]; R. insidiosa, with NaTetraBorate): ⅛ and ¼ and ½
- Reduced PhlB ([4]; S. maltophilia, with Fluorescein): ⅛ and ¼ and ½ and 1/16
- Reduced PhlB ([4]; S. maltophilia, with NaTetraBorate): ⅛ and ¼ and ½
- MIC at 24 hours in Light, PHL B ([5]; A. niger, alone ('Trial' line)): 1.93 µM and 3.62 µM
- Reduced PhlB ([5]; A. niger, with Ammonium sulfate): ¼ and ½
- Reduced PhlB ([5]; A. niger, with Fluorescein): ½
- Reduced PhlB ([5]; A. niger, with NaTetraBorate): ½
- Reduced PhlB ([8]; C. lunata, with Ammonium sulfate): ⅛ and ¼ and ½
- Reduced PhlB ([8]; C. lunata, with Fluorescein): ¼ and ½
- Reduced PhlB ([8]; C. lunata, with NaTetraBorate): ¼ and ½
- MIC at 24 hours in Light, PHL B [6, 13]: 1.93 µM and 3.62 µM
- Reduced PhlB ([6]; A. alternata, with Ammonium sulfate): ¼ and ½
- Reduced PhlB ([6]; A. alternata, with Fluorescein): ¼
- Reduced PhlB ([6]; A. alternata, with NaTetraBorate): ½
- MIC at 24 hours in Light, PHL B [7, 14]: 125 µM and 125.36 µM and 62.68 µM
- Reduced PhlB ([7]; C. albicans, with Ammonium sulfate): 1/125 and 1/64 and 1/32 and 1/16 and ⅛ and ¼ and ½
- Reduced PhlB ([7]; C. albicans, with Fluorescein): 1/64 and 1/32 and 1/16 and ⅛ and ¼ and ½
- Reduced PhlB ([7]; C. albicans, with NaTetraBorate): 1/128 and 1/64 and 1/32 and 1/16 and ⅛ and ¼ and ½
- control of Gram(+) bacteria (Gram(+) bacteria): control Gram(+) bacteria at millimolar to micromolar concentrations
- control of Gram(−) bacteria (Gram(−) bacteria): does not control Gram(−) bacteria
